Test results published in patent publication US11021454B2, “Type of aryl benzofuran amidated derivative and medical use thereof” (CHINA PHARMACEUTICAL UNIVERSITY, priority 2016, dated 2021).
Marks after values point to notes of the source that are not given here.

What was measured:
xanthine oxidase = xanthine oxidase (Homo sapiens (Human), UniProt P47989); assay: Xanthine oxidase inhibitory activity (absorbance at 295 nm, xanthine substrate); format: biochemical; settings: average of four parallel experiments
Chain of xanthine oxidase (P47989 whole entry, species assumed): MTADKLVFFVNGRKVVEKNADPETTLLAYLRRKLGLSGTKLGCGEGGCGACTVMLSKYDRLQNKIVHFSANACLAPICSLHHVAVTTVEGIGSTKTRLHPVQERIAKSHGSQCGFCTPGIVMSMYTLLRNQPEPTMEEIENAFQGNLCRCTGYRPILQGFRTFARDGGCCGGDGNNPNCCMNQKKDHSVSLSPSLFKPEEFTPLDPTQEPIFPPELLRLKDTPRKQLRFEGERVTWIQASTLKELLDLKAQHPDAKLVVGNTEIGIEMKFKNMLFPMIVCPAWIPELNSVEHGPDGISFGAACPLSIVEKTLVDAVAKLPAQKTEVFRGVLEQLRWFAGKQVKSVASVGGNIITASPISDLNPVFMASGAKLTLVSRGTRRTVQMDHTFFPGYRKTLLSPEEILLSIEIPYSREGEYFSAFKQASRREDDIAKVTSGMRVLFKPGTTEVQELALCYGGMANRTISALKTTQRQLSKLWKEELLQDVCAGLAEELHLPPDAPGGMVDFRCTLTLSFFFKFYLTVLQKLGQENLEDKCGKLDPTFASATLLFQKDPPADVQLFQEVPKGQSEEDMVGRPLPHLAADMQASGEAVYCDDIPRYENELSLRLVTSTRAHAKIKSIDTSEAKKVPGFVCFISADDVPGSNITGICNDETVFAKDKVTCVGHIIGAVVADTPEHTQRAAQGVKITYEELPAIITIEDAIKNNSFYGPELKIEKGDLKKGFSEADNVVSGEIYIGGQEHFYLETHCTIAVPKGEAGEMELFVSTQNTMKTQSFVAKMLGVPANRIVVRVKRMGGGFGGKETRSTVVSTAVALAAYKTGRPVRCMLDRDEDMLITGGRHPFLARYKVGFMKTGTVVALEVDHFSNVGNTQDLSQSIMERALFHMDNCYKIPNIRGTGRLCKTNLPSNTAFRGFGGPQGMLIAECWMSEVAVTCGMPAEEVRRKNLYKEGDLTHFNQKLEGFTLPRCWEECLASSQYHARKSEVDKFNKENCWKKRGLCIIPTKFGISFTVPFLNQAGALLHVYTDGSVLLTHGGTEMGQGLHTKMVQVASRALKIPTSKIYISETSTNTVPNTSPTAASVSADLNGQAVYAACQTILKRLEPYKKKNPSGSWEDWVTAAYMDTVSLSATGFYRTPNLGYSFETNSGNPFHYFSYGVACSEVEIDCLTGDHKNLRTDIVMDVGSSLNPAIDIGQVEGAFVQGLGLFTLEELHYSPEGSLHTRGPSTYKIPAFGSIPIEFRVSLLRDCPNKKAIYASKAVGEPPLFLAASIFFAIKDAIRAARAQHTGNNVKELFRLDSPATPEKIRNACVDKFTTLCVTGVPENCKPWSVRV
Experimental: Determination of Xanthine Oxidase Inhibitory Activity of Aryl Benzofuran Amidated Derivatives and Reagents (Amino Derivatives)
(2) XOD solution: Take 25 U/2.6 mL of XOD, dilute to 0.08 U/mL of XOD working solution with 75 mM PB solution, mix well with a pipette, store on ice for future use;
(3) Substrate preparation: accurately weigh the appropriate amount of xanthine (XA) into 5 mL of 0.1 N NaOH solution, dissolve it ultrasonically, and add 95 mL of 75 mM PB solution to prepare a substrate mother liquor with a final concentration of 0.48 mM, perform vortex mixing for 1 min; it is to be freshly prepared before each experiment;
Use DB to dilute to different concentrations ([…]) before the experiment, and the DMSO content is less than 0.1%.
(§1) Data processing: Data is processed by using Excel analysis and half-inhibitory concentration (IC50) is calculated by using GraphPad Prism 6.0.2.

[1] = tested on: LPS-stimulated macrophage RAW 264.7; assay: Scavenging of superoxide anion in LPS-stimulated macrophage RAW 264.7 (2-OH-E+ by LC-MS); format: cell-based; settings: for Decrease of 2-OH-E+ (%): test drug 10 μM, 0.1 μg/mL LPS, 24 h, RAW 264.7; for scavenging effect on superoxide anion compared to the model group: LPS-stimulated RAW 264.7
Experimental: The antioxidant activity (the ability to scavenge superoxide anion) of the synthesized benzofuran amidated derivative is evaluated by a cell model.
After phagocytosis of bacteria, senescent denatured cells, immune complexes or oxidized low-density lipoproteins, mammalian macrophages cells enter a functional activation state, with enhanced intracellular lysosomal function and increased ROS levels, and they secrete and synthesize inflammatory cytokines. Lipopolysaccharide (LPS) is the main component of the cell wall of Gram-negative bacteria and is the main material basis for its pathogenesis; it can stimulate the production of monocytes/macrophages and release a large amount of reactive oxygen species (mainly including O2^− and H2O2), inflammatory factors such as nitric oxide (NO), IL-1β and Tumor necrosis factor-α (TNF-α) that are involved in the acute phase response of the body, causing inflammatory damage to the body. The present invention utilizes the LPS-stimulated macrophage model to evaluate the antioxidant activity of benzofuran amidated derivatives to scavenge superoxide anion at the cellular level.
(2) LPS: accurately weigh the appropriate amount of LPS, and prepare a sample stock solution of 0.1 g/ml, with DMEM and store at −20° C. for later use.
(3) Probe Stabilizer DTPA: Weigh accurately the amount of DTPA, prepare a 20 mM sample stock solution with DMSO, dilute to 100 µM with PB, and store at 4° C. for use.
(4) HE: Prepare a 20 mmol/L stock solution by dissolving the probe with dimethyl sulfoxide under anaerobic and dark conditions, and store at −80° C. in the dark. Take it out before use, prepare a 10 μmol/L solution with DMEM, place it on ice and store it in the dark.
(1) RAW 264.7 cells are cultured in Petri dishes (60 mm), 4 mL per dish, and incubated in a 5% CO2 incubator with saturated humidity at 37° C. The experiment is divided into blank group, model group and drug-administered group.
(2) After 12 h of cell culture, the supernatant is discarded, and the test drug with a final concentration of 10 μM containing 0.1 μg/mL LPS medium is added, and two parallel holes are provided for each sample to be tested.
(3) Continue to culture in a cell culture incubator for 24 h, the supernatant is discarded, the cells are washed with PBS, and added to DMEM medium containing the probe HE (10 μM) and cultured in the dark for 30 min.
(4) The cells are then washed twice with ice-cold PBS/(100 μM) DTPA, then added 1 mL PBS/(100 μM) DTPA, before the cells are divided into two with a spatula (700 μL and 300 μL) and collected into EP tubes; then they are centrifuged at 13,000 rpm for 10 min at 4° C., the supernatant is removed, and the cell pellet are stored at −80° C. for future use.
(2) Pretreatment of the sample to be tested: 500 μL acetonitrile is added to each EP tube, protected from light, sonicated (10 s, eight cycles, 100 W), and centrifuged at 12,000 g for 10 min at 4° C. The supernatant is transferred to a 1.5 mL EP tube and dried under vacuum for 1 h to obtain a red dried material; the sample is then re-dissolved with 100 μL of mass spectrometry water, and the internal standard substance galantamine is added to make the final concentration of the sample to be tested at 0.1 μM. The sample to be tested is then centrifuged at 13,000 rpm for 10 min at 4° C. and analyzed by LC-MS.

[2] = DPPH free radical scavenging experiment (antioxidant activity); format: biochemical; settings: average of three parallel experiments; 0.1 mM DPPH, 30 min in the dark, 517 nm
Experimental: The antioxidant activity of the synthesized benzofuran amidated derivative is evaluated by DPPH free radical scavenging experiment.
(1) Preparation of DPPH solution: accurately weigh the appropriate amount of DPPH, add MeOH and perform ultrasonic dissolution to prepare 10 mM stock solution, and store at −20° C. Dilute to 0.1 mM with MeOH before the experiment and store in the dark;
Use MeOH to dilute to different concentrations ([…]) before the experiment.
as §1

[3] = Hyperuricemia model induced by potassium oxonate in mice: serum uric acid; format: in vivo, Kunming mice; settings: 2 h after administration, potassium oxonate 300 mg/kg
Experimental: The effect of benzofuran amidated derivatives on blood uric acid in mice is evaluated by an animal model of hyperuricemia induced by potassium oxonate
(1) Test animals: Kunming mice are provided by the Test Animals Center of Yangzhou University. Fasting is given 12 h before the drug administration and during the test period, and drinking water is not restricted during the experiment.
The test drug is prepared with 0.5% sodium carboxymethylcellulose (CMC-Na) at a suitable concentration; the normal control group of mice are intraperitoneally injected with 0.5% sodium carboxymethylcellulose, and the other groups are injected intraperitoneally with potassium oxonate 300 mg/kg. 1 h later, the mice in the normal control group and the model group are intraperitoneally injected with 0.5% sodium carboxymethylcellulose, and the other groups are intraperitoneally injected with 10 mL/kg of the test drug. 2 hours after the drug administration, 500 μL of blood is taken from the eyeball, placed at room temperature for 1 h, centrifuged at 3000 rpm for 5 min, and the upper serum is stored at −4° C. The uric acid level in the serum of the mice is determined according to the method as specified the uric acid detection kit.

Normal hepatocyte LO2 = assay: Inhibition of uric acid production in xanthine-modelled hepatocyte cell model; format: cell-based
Experimental: The effect of benzofuran amidated derivatives on uric acid production is evaluated using a cell model.
(2) Experimental procedure: Normal hepatocyte LO2 are inoculated in a 6-well plate (plate density 1×10^6 cells/mL), and cell experiments are performed after 4 hours of plating.
(3) Pre-treatment of mass spectrometry: take 100 μL of the medium collected, add MeOH 400 μL, CHCl3 100 μL and H2O 300 μL, perform vortex mixing, and centrifuging at 20000 g for 10 min, then take the upper layer for concentration and dry.

SMILES | IC50 (xanthine oxidase) | Decrease of 2-OH-E+ (%) [1] | other results
N[C@@H](CS)C(=O)O [L-cys] | > 60 µM |  | 
O=C(/C=C/c1ccc(O)c2oc(-c3ccc(O)c(O)c3)cc12)N[C@H](Cc1ccc(O)c(O)c1)C(=O)O [Compound 6b, (R,E)-3-(3,4-dihydroxyphenyl)-2-(3-(2-(3,4-dihydroxyphenyl)-7-hydroxybenzofuran-4-yl)acrylamido) propanoic Acid] |  | 80.81% | 
COC(=O)[C@H](Cc1ccc(O)c(O)c1)NC(=O)/C=C/c1ccc(O)c2oc(-c3ccc(O)c(O)c3)cc12 [Compound 5a, Methyl (S,E)-3-(3,4-dihydroxyphenyl)-2-(3-(2-(3,4-dihydroxyphenyl)-7-hydroxybenzofuran-4-yl)acrylamido)propanoate] |  | 78.59% | 
N[C@H](Cc1ccc(O)c(O)c1)C(=O)O [D-dopa] | > 60 µM |  | 
CSCC[C@H](N)C(=O)O [L-met] | > 60 µM |  | 
COC(=O)[C@@H](Cc1ccc(OC)c(OC)c1)OC(=O)/C=C/c1ccc(OC)c2oc(-c3ccc(OC)c(OC)c3)cc12 [Compound 7, (2R)-3-(3,4-dimethoxyphenyl)-1-methoxy-1-oxopropan-2-yl (2E)-3-[2-(3,4-dimethoxyphenyl)-7-methoxy-1-benzofuran-4-yl]prop-2-enoate] | > 60 µM |  | IC50 [2]: > 100 µM
N[C@@H](Cc1ccc(O)c(O)c1)C(=O)O [L-dopa] | > 60 µM |  | 
COC(=O)[C@@H](Cc1ccc(O)c(O)c1)NC(=O)/C=C/c1ccc(O)c2oc(-c3ccc(O)c(O)c3)cc12 [Compound 5b] |  | 74.16% | Serum uric acid value (mg/dl) ([3]; 20 mg/kg intraperitoneal): 3.87 ± 0.31*^a mg/dl; Serum uric acid value ([3]; 40 mg/kg intraperitoneal): 3.61 ± 0.25 mg/dL; Serum uric acid value ([3]; 80 mg/kg intraperitoneal): 3.30 ± 0.46 mg/dL
Oc1ncnc2[nH]ncc12 [Allopurinol, reference compound] |  |  | Serum uric acid value ([3]; 20 mg/kg intraperitoneal): 3.18 ± 0.50 mg/dL
Cc1c(C)c2c(c(C)c1O)CC[C@@](C)(CCC[C@H](C)CCC[C@H](C)CCCC(C)C)O2 [Ve, vitamin E, reference compound] |  | 53.18% | 
C[C@H](NC(=O)/C=C/c1ccc(O)c2oc(-c3ccc(O)c(O)c3)cc12)C(=O)O [Compound 6c, (E)-(3-(2-(3,4-dihydroxyphenyl)-7-hydroxybenzofuran-4-yl)acryloyl)-L-alanine] |  | 41.65% | scavenging effect on superoxide anion compared to the model group [1]: obvious scavenging effect
N[C@@H](Cc1c[nH]c2ccccc12)C(=O)O [L-trp] | > 60 µM |  | 
Cc1nc(-c2ccc(OCC(C)C)c(C#N)c2)sc1C(=O)O [Febuxostat] |  |  | inhibition at 5 µM (Normal hepatocyte LO2; Homo sapiens, L02, 5 μM, LO2 cells, 10 μM xanthine, 24 h, read-out: Inhibition rate (%) of uric acid): 78.7%
O=C(/C=C/c1ccc(O)c2oc(-c3ccc(O)c(O)c3)cc12)N[C@@H](Cc1ccccc1)C(=O)O [Compound 6d, (E)-(3-(2-(3,4-dihydroxyphenyl)-7-hydroxybenzofuran-4-yl)acryloyl)-L-phenylalanine] |  | 81.27% | 
N[C@@H](Cc1ccccc1)C(=O)O [L-phe] | > 60 µM |  | 
COC(=O)[C@H](C)NC(=O)/C=C/c1ccc(O)c2oc(-c3ccc(O)c(O)c3)cc12 [Compound 5c, Methyl (E)-(3-(2-(3,4-dihydroxyphenyl)-7-hydroxybenzofuran-4-yl)acryloyl)-L-alaninate] |  | 60.54% | 
O=C(/C=C/c1ccc(O)c2oc(-c3ccc(O)c(O)c3)cc12)O[C@H](Cc1ccc(O)c(O)c1)C(=O)O [Salvianolic acid C, reference compound] | 8.26 µM | 37.82% | IC50 [2]: 6.87 µM; scavenging effect on superoxide anion compared to the model group [1]: obvious scavenging effect; Inhibition rate (%) of uric acid (Normal hepatocyte LO2; 10 μM, LO2 cells, 10 μM xanthine, 24 h): 15.2%; Inhibition rate (%) of uric acid (Normal hepatocyte LO2; 30 μM, LO2 cells, 10 μM xanthine, 24 h): 24.7%; Inhibition rate (%) of uric acid (Normal hepatocyte LO2; 50 μM, LO2 cells, 10 μM xanthine, 24 h): 31.4%; inhibitory effect on the formation of uric acid in hepatocyte model (Normal hepatocyte LO2; xanthine modeling): significant inhibitory effect
C[C@H](N)C(=O)O [L-ala] | > 60 µM |  | 
O=C(/C=C/c1ccc(O)c2oc(-c3ccc(O)c(O)c3)cc12)N[C@@H](Cc1ccc(O)cc1)C(=O)O [Compound 6e, (E)-(3-(2-(3,4-dihydroxyphenyl)-7-hydroxybenzofuran-4-yl)acryloyl)-L-tyrosine] |  | 83.41% | Serum uric acid value ([3]; 20 mg/kg intraperitoneal): 3.82 ± 0.62 mg/dL; Serum uric acid value ([3]; 40 mg/kg intraperitoneal): 3.54 ± 0.26 mg/dL; Serum uric acid value ([3]; 80 mg/kg intraperitoneal): 3.26 ± 0.44 mg/dL
N[C@@H](Cc1ccc(O)cc1)C(=O)O [L-tyr] | > 60 µM |  | 
